# Active and inactive are the calls of the source. How the calls were made is not given here.
# System: Broad 7084-01 inhibitor HTS, set 2
# Assay: single-concentration hits, screen 7084 set 2 (AID 977613);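 further: host cells are infected with parasite promastigotes that become internalized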
row,SMILES,active concentration
1,C/C=C/c1ccccc1[C@H]1[C@@H](C#N)N(C(=O)NC2CCCCC2)[C@H]1CO,> 10 µM (inactive)
2,O=C(C[C@H]1CC[C@@H]2[C@H](COC[C@H](O)CN2Cc2cccc(F)c2)O1)NCc1cccc(F)c1,> 10 µM (inactive)
3,COC(=O)c1ccc(CN2CC(=O)N3[C@H](CO)[C@H](c4ccc(-c5cccnc5)cc4)[C@H]3C2)cc1,> 10 µM (inactive)
4,CCC(=O)N1CC2(C1)[C@H](c1ccc(-c3ccc(C)cc3)cc1)[C@@H](CO)N2S(=O)(=O)CC,> 10 µM (inactive)
5,O=C(Nc1ccc(F)cc1)N1[C@@H]2CNc3ccccc3[C@@H]2[C@@H]1CO,> 10 µM (inactive)
6,COc1ccc2c3c([nH]c2c1)[C@H](CO)N(C)CC31CCN(S(=O)(=O)c2ccc(C)cc2)CC1,> 10 µM (inactive)
7,CN(C)C(=O)C[C@@H]1CC[C@H]2[C@@H](COC[C@@H](O)CN2CC2CCCC2)O1,> 10 µM (inactive)
8,O=C(C[C@@H]1CC[C@@H]2[C@H](COC[C@H](O)CN2S(=O)(=O)c2ccccc2)O1)N[C@H]1CCN(Cc2ccccc2)C1,> 10 µM (inactive)
9,CN1C[C@H]2[C@@H](c3ccccc31)[C@H](CO)N2Cc1ccccc1Cl,> 10 µM (inactive)
10,Cn1cnc(CCNC(=O)C[C@@H]2CC[C@@H]3[C@H](COC[C@@H](O)CN3C(=O)C3CC3)O2)c1,> 10 µM (inactive)
11,COc1cccc(NC(=O)N2C[C@H](O)COC[C@H]3O[C@H](CC(=O)NC4CCC4)CC[C@@H]32)c1,> 10 µM (inactive)
12,CCS(=O)(=O)N1CC2(C1)CN(S(=O)(=O)c1ccccc1)[C@H](CO)c1c2c2ccc(OC)cc2n1C,> 10 µM (inactive)
13,O=C(C[C@@H]1CC[C@@H]2[C@H](COC[C@@H](O)CN2Cc2ccc3c(c2)OCO3)O1)Nc1ccccc1,> 10 µM (inactive)
14,COc1cccc(S(=O)(=O)N2CCCCN3[C@@H](CO)[C@@H](c4ccc(C#CCC(C)C)cc4)[C@@H]3C2)c1,> 10 µM (inactive)
15,O=C1CNC[C@@H]2[C@H](c3ccc(C#CC4CCCCC4)cc3)[C@@H](CO)N12,> 10 µM (inactive)
16,O=C1CNC[C@H]2[C@H](c3ccc(C4=CCCC4)cc3)[C@H](CO)N12,> 10 µM (inactive)
17,O=C(C[C@@H]1CC[C@H]2[C@@H](COC[C@H](O)CN2CC2CCOCC2)O1)NCC1CCCCC1,> 10 µM (inactive)
18,O=C(C[C@@H]1CC[C@H]2[C@@H](COC[C@H](O)CN2Cc2nccs2)O1)NCc1ccccc1,> 10 µM (inactive)
19,CN1C(=O)c2cc(NS(C)(=O)=O)ccc2OC[C@@H]2O[C@@H](CC(=O)NC3CCCCC3)CC[C@H]21,> 10 µM (inactive)
20,COc1ccccc1-c1ccc2n(c1=O)C[C@H]1[C@H](CO)[C@@H](C(=O)N3CCOCC3)[C@@H]2N1CC1CC1,> 10 µM (inactive)
21,CCCC(=O)N1CC2(C1)CN(C(=O)c1ccc(F)cc1)[C@H](CO)c1[nH]c3cc(OC)ccc3c12,> 10 µM (inactive)
22,COc1cccc(-c2ccc3c(c2)[C@H]2[C@H](CCN2S(=O)(=O)c2ccccc2C)[C@@H](CO)N3)c1,> 10 µM (inactive)
23,COCC#Cc1ccc([C@@H]2[C@@H](CO)N3C(=O)CN(C(=O)Nc4ccccc4F)C[C@H]23)cc1,> 10 µM (inactive)

row,SMILES,active concentration
1,CCCNC(=O)N1[C@H](CO)[C@H](c2ccccc2-c2cccc(OC)c2)[C@@H]1C#N,> 10 µM (inactive)
2,O=C(C[C@H]1CC[C@@H]2[C@H](COC[C@H](O)CN2Cc2cc(F)ccc2F)O1)NCc1ccc(F)cc1,> 10 µM (inactive)
3,CN1C(=O)c2cc(NC(=O)c3cccc(F)c3)ccc2OC[C@@H]2O[C@H](CC(=O)NCC3CCCCC3)CC[C@@H]21,> 10 µM (inactive)
4,O=C(C[C@H]1CC[C@@H]2[C@H](COC[C@@H](O)CN2Cc2cccc(F)c2)O1)NCc1cccc(F)c1,> 10 µM (inactive)
5,CN(C)C(=O)C[C@H]1CC[C@H]2[C@@H](COC[C@@H](O)CN2C(=O)C2CC2)O1,> 10 µM (inactive)
6,Cc1noc(C)c1NC(=O)N1C[C@@H](O)COC[C@H]2O[C@H](CC(=O)NCC3CCCCC3)CC[C@@H]21,> 10 µM (inactive)
7,COc1cccc(NC(=O)Nc2ccc3c(c2)C(=O)N(C)[C@H]2CC[C@H](CC(=O)NCCc4ccccc4)O[C@@H]2CO3)c1,> 10 µM (inactive)
8,O=C(C[C@@H]1CC[C@H]2[C@@H](COC[C@H](O)CN2C(=O)Nc2cc(Cl)cc(Cl)c2)O1)NCC1CCCCC1,> 10 µM (inactive)
9,O=C(Nc1ccc(F)cc1)N1CC(=O)N2[C@H](CO)[C@@H](c3ccc(C#Cc4cccnc4)cc3)[C@H]2C1,> 10 µM (inactive)
10,C[C@H](O)C#Cc1ccc([C@H]2[C@@H](CO)N3CCCCN(C(=O)c4ccc5c(c4)OCO5)C[C@@H]23)cc1,> 10 µM (inactive)
11,COc1ccc2c3c(n(C)c2c1)[C@H](CO)N(C(=O)Nc1ccccc1F)CC31CN(C(=O)c2ccccc2F)C1,> 10 µM (inactive)
12,CCCC#Cc1ccc([C@@H]2[C@H]3CN(C(=O)c4cccnc4)CC(=O)N3[C@H]2CO)cc1,> 10 µM (inactive)
13,COCC(=O)N1CC[C@H]2[C@@H]1c1cc(-c3ccc(F)cc3)ccc1N(C)[C@H]2CO,> 10 µM (inactive)
14,O=C(C[C@@H]1CC[C@@H]2[C@H](COC[C@H](O)CN2CC2CC2)O1)NCC1CC1,> 10 µM (inactive)
15,O=C(C[C@H]1CC[C@@H]2[C@H](COC[C@H](O)CN2C(=O)c2ccccc2F)O1)NCc1ccccc1,> 10 µM (inactive)
16,COc1ccc(C#Cc2ccc([C@H]3[C@@H](CO)N4C(=O)CN(C(=O)c5ccc(F)cc5)C[C@H]34)cc2)cc1,> 10 µM (inactive)
17,CN(C)C(=O)c1ccc(-c2ccc3c(c2)[C@@H]2[C@@H](CCN2Cc2ccc4c(c2)OCO4)[C@@H](CO)N3)cc1,> 10 µM (inactive)
18,Cc1nn(C)cc1NC(=O)C[C@H]1CC[C@@H]2[C@@H](COc3ccc(NC(=O)C4CCOCC4)cc3C(=O)N2C)O1,> 10 µM (inactive)
19,O=C1CNC[C@@H]2[C@@H](c3ccc(-c4ccccc4F)cc3)[C@H](CO)N12,> 10 µM (inactive)
20,COc1ccc2c3c(n(C)c2c1)[C@@H](CO)N(C(=O)Cc1ccccc1)CC31CN(C)C1,> 10 µM (inactive)
21,O=C(CC1CC1)N1CC(=O)N2[C@H](C1)[C@@H](c1ccc(/C=C/c3ccccc3)cc1)[C@@H]2CO,> 10 µM (inactive)
22,CCC(=O)N1CC2(C1)[C@@H](c1ccc(-c3ccc(F)cc3)cc1)[C@@H](CO)N2C(=O)CC,> 10 µM (inactive)
23,COCC#Cc1ccc([C@@H]2[C@H]3CN(C(=O)Nc4ccccc4F)CC(=O)N3[C@H]2CO)cc1,> 10 µM (inactive)

row,SMILES,active concentration
1,CCCNC(=O)N1CC2(CCN(C(=O)c3cccc(F)c3)CC2)c2c([nH]c3cc(OC)ccc23)[C@H]1CO,> 10 µM (inactive)
2,Cn1cnc(CCNC(=O)C[C@@H]2CC[C@H]3[C@@H](COC[C@@H](O)CN3C(=O)C3CC3)O2)c1,> 10 µM (inactive)
3,O=C(c1cccc(F)c1)N1CC2(C1)[C@H](c1ccccc1)[C@@H](CO)N2C(=O)C1CCCCC1,> 10 µM (inactive)
4,O=C(NC1CCCCC1)N1CC(=O)N2[C@H](C1)[C@H](c1ccc(-c3ccncc3)cc1)[C@@H]2CO,> 10 µM (inactive)
5,O=C(C[C@@H]1CC[C@H]2[C@@H](COC[C@@H](O)CN2C(=O)c2cccnc2)O1)NCc1ccccc1,> 10 µM (inactive)
6,CN1CCCCN2[C@H](CO)[C@@H](c3ccc(-c4ccc(F)cc4)cc3)[C@@H]2C1,> 10 µM (inactive)
7,CC(C)C#Cc1ccc([C@H]2[C@H](CO)N3C(=O)CN(C(=O)c4ccc5c(c4)OCO5)C[C@@H]23)cc1,> 10 µM (inactive)
8,O=C(c1ccncc1)N1CC2(C1)[C@@H](c1ccccc1)[C@@H](CO)N2CC1CCOCC1,> 10 µM (inactive)
9,O=C(c1cnccn1)N1CC(=O)N2[C@@H](CO)[C@H](c3ccc(C#CC4CC4)cc3)[C@@H]2C1,> 10 µM (inactive)
10,O=C(c1cnccn1)N1CC(=O)N2[C@H](CO)[C@H](c3ccc(C#CC4CC4)cc3)[C@@H]2C1,> 10 µM (inactive)
11,O=C(c1ccccn1)N1C[C@H]2[C@@H](c3ccccc31)[C@@H](CO)N2C(=O)Nc1ccccc1F,> 10 µM (inactive)
12,Cc1ccccc1-c1ccccc1[C@@H]1[C@@H](C#N)N(C(=O)c2cccc(F)c2)[C@H]1CO,> 10 µM (inactive)
13,O=C(C1CCOCC1)N1CC(=O)N2[C@@H](CO)[C@@H](c3ccc(-c4cccnc4)cc3)[C@@H]2C1,> 10 µM (inactive)
14,CN(C)C(=O)C[C@@H]1CC[C@H]2[C@H](COc3ccc(NC(=O)c4ccc(F)cc4)cc3C(=O)N2C)O1,> 10 µM (inactive)
15,O=C1CN(S(=O)(=O)Cc2ccccc2)C[C@H]2[C@@H](c3ccc(C#Cc4ccccc4)cc3)[C@H](CO)N12,> 10 µM (inactive)
16,Cc1noc(C)c1NC(=O)Nc1ccc2c(c1)C(=O)N(C)[C@H]1CC[C@H](CC(=O)NCc3ccc(Cl)cc3)O[C@@H]1CO2,> 10 µM (inactive)
17,O=C(C[C@@H]1CC[C@H]2[C@@H](COC[C@H](O)CN2C(=O)c2ccncc2)O1)NCc1ccc(-c2ccccc2)cc1,> 10 µM (inactive)
18,O=C(C[C@@H]1CC[C@@H]2[C@H](COC[C@@H](O)CN2S(=O)(=O)c2cccc(Cl)c2)O1)Nc1ccc(-c2ccccc2)cc1,> 10 µM (inactive)
19,CCCC#Cc1ccc([C@H]2[C@@H](CO)N3C(=O)CN(S(=O)(=O)c4ccccc4C)C[C@H]23)cc1,> 10 µM (inactive)
20,CC(C)CC#Cc1ccc([C@@H]2[C@H](CO)N3C(=O)CN(C(=O)c4ccccn4)C[C@@H]23)cc1,> 10 µM (inactive)
21,CCC(=O)N1CC2(C1)[C@@H](c1ccc(-c3ccc(F)cc3)cc1)[C@H](CO)N2C(=O)CC,> 10 µM (inactive)
22,N#Cc1cccc(-c2ccc3c(c2)[C@@H]2[C@@H](CCN2S(=O)(=O)c2ccc(F)cc2)[C@H](CO)N3)c1,> 10 µM (inactive)
23,COc1ccc2c3c([nH]c2c1)[C@H](CO)N(C(=O)C1CCOCC1)CC31CN(C(=O)NC(C)C)C1,> 10 µM (inactive)

# — PubChem BioAssay AID977613 (Broad Institute, 2014)
